US9089587B2, “Treatment of papulopustular rosacea with ivermectin” (Galderma S.A., priority 2013, dated 2015)

How the values were obtained:
[1] = test system: subjects with moderate or severe papulopustular rosacea; assay: Study 1 and Study 2: once-daily ivermectin 1% cream vs vehicle, first part, 12 weeks (Example 3); format: in vivo, human
Protocol: Both studies were conducted in accordance with the ethical principles of the Declaration of Helsinki and Good Clinical Practices, and in compliance with local regulatory requirements.
Each study had three parts. In the first part of the study, subjects with PPR were treated with ivermectin 1% cream (IVM 1%) or vehicle once daily at bedtime for 12 weeks. In the second part of the study, subjects initially treated with IVM 1% once daily at bedtime continued the same treatment, while subjects treated with the vehicle once daily switched to topical treatment with azelaic acid 15% gel twice daily, in the morning and evening. The third part of the study consisted of 4 weeks safety follow-up, without treatment. […]
Efficacy assessments at each visit were the IGA of disease severity, and inflammatory lesion counts (papules and pustules) on each of the five facial regions (forehead, chin, nose, right cheek, left cheek). Safety assessments included adverse events (AEs) throughout the study, local tolerance parameters (stinging/burning, dryness, itching) at each study visit evaluated on a 4-point scale [from 0 (none) to 3 (severe)], and laboratory parameters (hematology and biochemistry) measured before and after treatment. […]

[2] = test system: subjects with moderate or severe papulopustular rosacea; assay: Ivermectin 1% cream vs metronidazole 0.75% cream, Period A, 16 weeks (Example 4); format: in vivo, human; conditions: week 12 (highest difference)
Description: Study visits during Period A were as follows: a screening visit, and at baseline, weeks 3, 6, 9, 12 and 16.
Eligible subjects were 18 years or older, with moderate or severe papulopustular rosacea as noted by an IGA of 3 (“several small or large papules/pustules, moderate erythema”) or 4 (“numerous small and/or large papules/pustules, severe erythema”), and presenting with 15-70 facial inflammatory lesions (papules and pustules).
The subjects were instructed to maintain a consistent lifestyle throughout the study regarding rosacea triggers (i.e. avoiding environmental factors, certain foods, and excessive sun exposure).
Efficacy assessments at each visit were inflammatory lesion counts (papules and pustules) counted on five facial regions (forehead, chin, nose, right cheek, left cheek), and the Investigator's Global Assessment (IGA) of disease severity. Safety assessments included adverse events (AEs) throughout the study, local tolerance parameters (stinging/burning, dryness, itching) at each visit evaluated on a 4-point scale (from 0 (none) to 3 (severe)), and laboratory parameters measured at baseline, weeks 9 and 16. Other assessments included the subject's evaluation of rosacea improvement compared to their condition at baseline, and subject's appreciation questionnaire at the end of the study (regarding satisfaction with the study drug). […]

## 5-O-demethyl-22,23-dihydroavermectin A1a plus 5-O-demethyl-25-de(1-methylpropyl)-25-(1-methylethyl)-22,23-dihydroavermectin A1a [ivermectin]
[1]; Study 1, week 2
  median reduction from baseline in inflammatory lesion counts: about 30%
[1]; Study 2, week 2
  median reduction from baseline in inflammatory lesion counts: 27.3%
[2]
  difference in IGA success rate, ivermectin superior to metronidazole: 14.9%
